Experimental data: patent US7507860B2 (Pfizer Inc., priority 2004, dated 2009)
Residue numbers refer to the chain shown, from its start. Like-named read-outs stand apart in the source and are kept apart here.

Columns and labels:
[1] = target: T1, human androgen receptor (hAR) (Homo sapiens, UniProt P10275); assay: Competitive binding analysis on baculovirus/Sf9 generated hAR extracts with 3H-DHT tracer; details: hAR extract, 1 nM 3H-DHT, one hour at 4° C; mean of multiple tests; read-out: AR Binding IC50
T1 construct: made in house; host or cells: baculovirus/Sf9 insect cells (crude extract)
T1 sequence (P10275 1-920): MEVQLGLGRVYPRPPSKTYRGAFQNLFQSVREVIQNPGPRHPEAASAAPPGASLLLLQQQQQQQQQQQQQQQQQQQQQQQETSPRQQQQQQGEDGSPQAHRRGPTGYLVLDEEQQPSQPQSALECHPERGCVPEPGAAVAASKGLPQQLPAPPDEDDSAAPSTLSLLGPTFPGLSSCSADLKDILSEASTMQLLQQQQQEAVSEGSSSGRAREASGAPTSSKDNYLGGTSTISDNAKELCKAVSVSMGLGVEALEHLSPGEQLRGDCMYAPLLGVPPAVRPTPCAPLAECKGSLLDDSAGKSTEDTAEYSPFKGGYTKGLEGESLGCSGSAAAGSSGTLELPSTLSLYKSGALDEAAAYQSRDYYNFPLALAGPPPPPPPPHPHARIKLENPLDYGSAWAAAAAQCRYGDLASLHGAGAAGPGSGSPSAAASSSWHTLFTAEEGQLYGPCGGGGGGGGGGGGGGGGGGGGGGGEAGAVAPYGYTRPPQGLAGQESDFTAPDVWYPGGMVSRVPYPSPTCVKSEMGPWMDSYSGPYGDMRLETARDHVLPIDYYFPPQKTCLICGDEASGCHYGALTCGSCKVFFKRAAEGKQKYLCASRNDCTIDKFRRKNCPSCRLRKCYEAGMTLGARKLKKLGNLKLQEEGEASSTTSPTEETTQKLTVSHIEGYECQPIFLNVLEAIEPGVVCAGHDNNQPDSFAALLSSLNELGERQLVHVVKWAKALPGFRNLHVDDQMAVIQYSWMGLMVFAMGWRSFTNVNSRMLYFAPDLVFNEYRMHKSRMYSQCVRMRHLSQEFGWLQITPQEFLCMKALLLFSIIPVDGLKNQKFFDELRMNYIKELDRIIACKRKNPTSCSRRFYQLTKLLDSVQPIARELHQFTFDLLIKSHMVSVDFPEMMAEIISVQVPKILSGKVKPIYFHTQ
Procedure: The compounds of Formula I have affinity for the androgen receptor. […] The description below describes how the assay was carried out.
Competitive binding analysis was performed on baculovirus/Sf9 generated hAR extracts in the presence or absence of different concentrations of test agent and a fixed concentration of ^3H-dihydrotestosterone (^3H-DHT) as tracer. This binding assay method is a modification of a protocol previously described (Liao S., et. al. J. Steroid Biochem. 20:11-17 1984). Briefly, progressively decreasing concentrations of compounds are incubated in the presence of hAR extract (Chang et al. P.N.A.S. Vol. 89, pp. […], 1992), hydroxylapatite, and 1 nM^3H-DHT for one hour at 4° C. Subsequently, the binding reactions are washed three times to completely remove excess unbound ^3H-DHT. hAR bound ^3H-DHT levels are determined in the presence of compounds (=i.e competitive binding) and compared to levels bound when no competitor is present (=i.e. maximum binding). Compound binding affinity to the hAR is expressed as the concentration of compound at which one half of the maximum binding is inhibited. Table II below provides the results that were obtained for selected compounds (reported data is the mean of multiple tests as shown below)

androgen receptor = target: T2, androgen receptor (Homo sapiens, UniProt P10275); assay: AR antagonist cell assay (MDA-MB453-MMTV clone 54-19 luciferase reporter, 100 pM DHT); format: cell-based
T2 sequence (P10275 1-920 Q868H): T1 sequence (P10275 1-920) with Q868H
Procedure: The compounds ability to antagonize the effects of androgen on the androgen receptor were determined in a whole cell assay as described immediately below.
Experimental Procedure for AR Antagonist Cell Assay
This cell line is a stable transfected cell line with MDA-MB453 cell background (a human breast tumor cell line expressing androgen receptor). A MMTV minimal promoter containing ARE was first cloned in front of a firefly luciferase reporter gene. Then the cascade was cloned into transfection vector pUV120puro. […] Puromycin resistant stable cell line was selected. Cell Culture Media and Reagents:
Plating medium: DMEM (phenol red free), 10% charcoal treated HyClone serum, 1% L-glutamine
Assay medium: DMEM (phenol red free), 1% charcoal treated HyClone serum, 1% L-glutamine, and 1% penicillin/streptomycin
• 1. Cells are maintained in culture medium, splitting cells when they reach 80-90% confluence • 2. To test compounds, 10,000 cells/well are plated to opaque 96 cell culture plate in 100 ul/well plating medium, culture for overnight at 37° C. in cell culture incubator • 3. […] Add 10 ul/well freshly prepared DHT (final concentration at 100 pM) to each well, incubate at 37° C. for 17 hr (overnight) • 5.
The results are reported as the mean of multiple tests as described below (the numbers of tests are indicated in the footnote). N.D. denotes that the compound was not tested.

[2] = MDA-MB453-MMTV clone 54-19, inhibition of 100 pM DHT induction, 17 hr; mean of multiple tests; read-out: AR Cell IC50

CC(C)CC(Oc1ccc(C#N)c(C(F)(F)F)c1)C(=O)N[C@H](C)c1ccc(O)cc1 (stereo in doubt) [Example 117, 2-(4-Cyano-3-trifluoromethyl-phenoxy)-4-methyl-pentanoic acid [1-(4-hydroxy-phenyl)-ethyl]-amide]
IC50 [1]: 114 nM | IC50 (androgen receptor; read-out: AR Cell IC50; MDA-MB453-MMTV clone 54-19, inhibition of 100 pM DHT induction, 17 hr; mean of multiple tests): 19 nM

CCCC(Oc1ccc(C#N)c(C(F)(F)F)c1)C(=O)N[C@@H](C)c1ccc(O)cc1 (stereo in doubt) [Example 118, 2-(4-Cyano-3-trifluoromethyl-phenoxy)-pentanoic acid [1-(4-hydroxy-phenyl)-ethyl]-amide]
IC50 [1]: 1010 nM | IC50 (androgen receptor; [2]): 589 nM

CCCC(Oc1ccc(C#N)c(C(F)(F)F)c1)C(=O)N[C@H](C)c1ccc(O)cc1 (stereo in doubt) [Example 119, 2-(4-Cyano-3-trifluoromethyl-phenoxy)-pentanoic acid [1-(4-hydroxy-phenyl)-ethyl]-amide]
IC50 [1]: 86 nM | IC50 (androgen receptor; [2]): 117 nM

CC(C)CC(Oc1ccc(C#N)c(C(F)(F)F)c1)C(=O)N[C@@H](C)c1ccc(O)cc1 (stereo in doubt) [Example 120, 2-(4-Cyano-3-trifluoromethyl-phenoxy)-4-methyl-pentanoic acid [1-(4-hydroxy-phenyl)-ethyl]-amide]
IC50 [1]: 98 nM | IC50 (androgen receptor; [2]): 44 nM

COc1ccc([C@H](C)NC(=O)C(CC(C)C)Oc2ccc(C#N)c(C(F)(F)F)c2)cc1 (stereo in doubt) [Example 121, 2-(4-Cyano-3-trifluoromethyl-phenoxy)-4-methyl-pentanoic acid [1-(4-methoxy-phenyl)-ethyl]-amide]
IC50 [1]: 145 nM | IC50 (androgen receptor; [2]): 157 nM

CCCC(Oc1ccc(C#N)c(C(F)(F)F)c1)C(=O)N[C@H](C)c1ccc(OC)cc1 (stereo in doubt) [Example 123, 2-(4-Cyano-3-trifluoromethyl-phenoxy)-pentanoic acid [1-(4-methoxy-phenyl)-ethyl]-amide]
IC50 [1]: 653 nM | IC50 (androgen receptor; [2]): 681 nM

CC(C)CC(Oc1ccc(C#N)c(C(F)(F)F)c1)C(=O)NC(C)C (centres unmarked) [Example 2, 2-(4-Cyano-3-trifluoromethyl-phenoxy)-4-methyl-pentanoic acid isopropylamide]
IC50 [1]: 64 nM | IC50 (androgen receptor; [2]): 142 nM

CCCC(Oc1ccc(C#N)c(C(F)(F)F)c1)C(=O)NCC (centres unmarked) [Example 5, 2-(4-Cyano-3-trifluoromethyl-phenoxy)-pentanoic acid ethylamide]
IC50 [1]: 277 nM | IC50 (androgen receptor; [2]): > 1000 nM

CC(C)CC(Oc1ccc(C#N)c(C(F)(F)F)c1)C(=O)NCC1CC1 (centres unmarked) [Example 7, 2-(4-Cyano-3-trifluoromethyl-phenoxy)-4-methyl-pentanoic acid cyclopropylmethyl-amide]
IC50 [1]: 107 nM | IC50 (androgen receptor; [2]): 661 nM

CC(C)CNC(=O)C(CC(C)C)Oc1ccc(C#N)c(C(F)(F)F)c1 (centres unmarked) [Example 8, 2-(4-Cyano-3-trifluoromethyl-phenoxy)-4-methyl-pentanoic acid isobutyl-amide]
IC50 [1]: 58 nM | IC50 (androgen receptor; [2]): 534 nM

COc1ccc(CCNC(=O)C(CC(C)C)Oc2ccc(C#N)c(C(F)(F)F)c2)cc1 (centres unmarked) [Example 9, 2-(4-Cyano-3-trifluoromethyl-phenoxy)-4-methyl-pentanoic acid [2-(4-methoxyphenyl)-ethyl]-amide]
IC50 [1]: 163 nM | IC50 (androgen receptor; [2]): > 1000 nM

CC(C)CC(Oc1ccc(C#N)c(C(F)(F)F)c1)C(=O)NCCOc1ccccc1 (centres unmarked) [Example 10, 2-(4-Cyano-3-trifluoromethyl-phenoxy)-4-methyl-pentanoic acid (2-phenoxyethyl)-amide]
IC50 [1]: 91 nM | IC50 (androgen receptor; [2]): > 1000 nM

CC(C)CC(Oc1ccc(C#N)c(C(F)(F)F)c1)C(=O)NCc1ccco1 (centres unmarked) [Example 11, 2-(4-Cyano-3-trifluoromethyl-phenoxy)-4-methyl-pentanoic acid (furan-2-yl-methyl)-amide]
IC50 [1]: 172 nM | IC50 (androgen receptor; [2]): > 1000 nM

CC(C)CC(Oc1ccc(C#N)c(C(F)(F)F)c1)C(=O)NCc1cccs1 (centres unmarked) [Example 12, 2-(4-Cyano-3-trifluoromethyl-phenoxy)-4-methyl-pentanoic acid (thiophen-2-yl-methyl)-amide]
IC50 [1]: 86 nM | IC50 (androgen receptor; [2]): > 1000 nM

CC(C)CC(Oc1ccc(C#N)c(C(F)(F)F)c1)C(=O)NC(C)c1cccs1 (centres unmarked) [Example 13, 2-(4-Cyano-3-trifluoromethyl-phenoxy)-4-methyl-pentanoic acid (1-thiophen-2-ylethyl)-amide]
IC50 [1]: 240 nM | IC50 (androgen receptor; [2]): 398 nM

CC(C)CC(Oc1ccc(C#N)c(C(F)(F)F)c1)C(=O)NC(C)c1cccnc1 (centres unmarked) [Example 15, 2-(4-Cyano-3-trifluoromethyl-phenoxy)-4-methyl-pentanoic acid (1-pyridin-3-ylethyl)-amide]
IC50 [1]: 309 nM | IC50 (androgen receptor; [2]): > 1000 nM

CCCC(Oc1ccc(C#N)c(C(F)(F)F)c1)C(=O)NC(C)Cc1ccsc1 (centres unmarked) [Example 18, 2-(4-Cyano-3-trifluoromethyl-phenoxy)-pentanoic acid (1-methyl-2-thiophen-3-ylethyl)-amide]
IC50 [1]: 222 nM | IC50 (androgen receptor; [2]): 815 nM

CC(C)CC(Oc1ccc(C#N)c(C(F)(F)F)c1)C(=O)NCc1cccnc1 (centres unmarked) [Example 19, 2-(4-Cyano-3-trifluoromethyl-phenoxy)-4-methyl-pentanoic acid (pyridin-3-yl-methyl)-amide]
IC50 [1]: 131 nM | IC50 (androgen receptor; [2]): > 1000 nM

CC(C)CCNC(=O)C(CC(C)C)Oc1ccc(C#N)c(C(F)(F)F)c1 (centres unmarked) [Example 22, 2-(4-Cyano-3-trifluoromethyl-phenoxy)-4-methyl-pentanoic acid (3-methyl-butyl)amide]
IC50 [1]: 178 nM | IC50 (androgen receptor; [2]): > 1000 nM
